Measurements as given in ChEMBL document CHEMBL2086254, “Synthesis and identification of novel indolo[2,3-a]pyrimido[5,4-c]carbazoles as a new class of anti-cancer agents” (Eur J Med Chem, 2012).

Columns and labels:
Type in all cases: functional
[1] = test system: SR; assay: Cytotoxicity against human SR cells after 48 hrs by SRB assay
[2] = test system: K562; assay: Cytotoxicity against human K562 cells after 48 hrs by SRB assay; settings: K562, 48 h
[3] = test system: MOLT-4; assay: Cytotoxicity against human MOLT4 cells after 48 hrs by SRB assay; settings: MOLT-4, 48 h
[4] = test system: A549; assay: Cytotoxicity against human A549 cells after 48 hrs by SRB assay; settings: A549, 48 h
[5] = test system: NCI-H226; assay: Cytotoxicity against human NCI-H226 cells after 48 hrs by SRB assay; settings: NCI-H226, 48 h
[6] = test system: NCI-H522; assay: Cytotoxicity against human NCI-H522 cells after 48 hrs by SRB assay; settings: NCI-H522, 48 h
[7] = test system: SF-539; assay: Cytotoxicity against human SF539 cells after 48 hrs by SRB assay; settings: SF-539, 48 h
[8] = test system: SNB-75; assay: Cytotoxicity against human SNB75 cells after 48 hrs by SRB assay; settings: SNB-75, 48 h
[9] = test system: UACC-62; assay: Cytotoxicity against human UACC62 cells after 48 hrs by SRB assay; settings: UACC-62, 48 h
[10] = test system: OVCAR-4; assay: Cytotoxicity against human OVCAR4 cells after 48 hrs by SRB assay; settings: OVCAR-4, 48 h
[11] = test system: 786-0; assay: Cytotoxicity against human 786-0 cells after 48 hrs by SRB assay; settings: 786-0, 48 h
[12] = test system: PC-3; assay: Cytotoxicity against human PC3 cells after 48 hrs by SRB assay; settings: PC-3, 48 h
[13] = test system: DU-145; assay: Cytotoxicity against human DU145 cells after 48 hrs by SRB assay; settings: DU-145, 48 h
[14] = test system: SK-OV-3; assay: Cytotoxicity against human SKOV3 cells after 48 hrs by SRB assay; settings: SK-OV-3, 48 h
[15] = test system: CAKI-1; assay: Cytotoxicity against human Caki1 cells after 48 hrs by SRB assay; settings: CAKI-1, 48 h
[16] = test system: HT-29; assay: Cytotoxicity against human HT-29 cells after 48 hrs by SRB assay; settings: HT-29, 48 h
[17] = read-out: LC50 (the source's name)

Cn1c2ccccc2c2c3nc(N)[nH]c(=O)c3c3c4ccccc4n(C)c3c21
GI50 [1]: 4.61 µM
TGI [1]: 41.8 µM
CC50 [1, 17]: > 100 µM
GI50 [2]: 3.93 µM
TGI [2]: 40.3 µM
CC50 [2, 17]: > 100 µM
GI50 [3]: 6.09 µM
TGI [3]: > 100 µM
CC50 [3, 17]: > 100 µM
GI50 [4]: 5.8 µM
TGI [4]: > 100 µM
CC50 [4, 17]: > 100 µM
GI50 [5]: 30.6 µM
TGI [5]: > 100 µM
CC50 [5, 17]: > 100 µM
GI50 [6]: 14.5 µM
TGI [6]: > 100 µM
CC50 [6, 17]: > 100 µM
GI50 [7]: 18.4 µM
TGI [7]: 56.6 µM
CC50 [7, 17]: > 100 µM
GI50 [8]: 66.6 µM
TGI [8]: > 100 µM
CC50 [8, 17]: > 100 µM
GI50 [9]: 16.1 µM
TGI [9]: > 100 µM
CC50 [9, 17]: > 100 µM
GI50 [10]: 16.8 µM
TGI [10]: > 100 µM
CC50 [10, 17]: > 100 µM
GI50 [11]: 7.7 µM
TGI [11]: 54.4 µM
CC50 [11, 17]: > 100 µM
GI50 [12]: 5.54 µM
TGI [12]: > 100 µM
CC50 [12, 17]: > 100 µM
GI50 [13]: 8.2 µM
TGI [13]: > 100 µM
CC50 [13, 17]: > 100 µM
GI50 [14]: 3.56 µM
TGI [14]: > 100 µM
CC50 [14, 17]: > 100 µM
GI50 [15]: 1.33 µM
TGI [15]: > 100 µM
CC50 [15, 17]: > 100 µM
GI50 [16]: 3.98 µM
TGI [16]: 66.1 µM
CC50 [16, 17]: > 100 µM
